The target in test [1] is T1, Human plasma kallikrein (Homo sapiens, UniProt P03952).
T1 construct: yields a heavy chain (371 amino acids) and a light chain (248 amino acids); purchased Enzyme Research Laboratories
Briefly: Plasma Kallikrein Assay. In kind it is biochemical. Particulars: purified Human plasma kallikrein 0.5 nM, substrate Acetyl-K-P-R-AFC, HEPES pH 7.4, fluorescence 405 Ex/510 Em; read-out: PKal IC50. The method, then:
(§1) The effectiveness of a compound of the present invention as an inhibitor of plasma kallikrein can be determined using a relevant purified serine protease, and an appropriate synthetic substrate. The rate of hydrolysis of the chromogenic or fluorogenic substrate by the relevant serine protease was measured both in the absence and presence of compounds of the present invention. Assays were conducted at rt or at 37° C. […] A decrease in the rate of fluorescence change in the presence of inhibitor is indicative of enzyme inhibition. Such methods are known to one skilled in the art. The results of this assay are expressed as the half-maximal inhibitory concentrations (IC50), or the inhibitory constant, Ki.
Plasma kallikrein determinations were made in 50 mM HEPES buffer at pH 7.4 containing 150 mM NaCl, 5 mM CaCl2), and 0.1% PEG 8000 (polyethylene glycol: Fisher Scientific). Determinations were made using purified Human plasma kallikrein at a final concentration of 0.5 nM (Enzyme Research Laboratories) and the synthetic substrate, Acetyl-K-P-R-AFC (Sigma #C6608) at a concentration of […].
Activity assays were performed by diluting a stock solution of substrate at least tenfold to a final concentration ≤0.2 Km into a solution containing enzyme or enzyme equilibrated with inhibitor. Times required to achieve equilibration between enzyme and inhibitor were determined in control experiments. The reactions were performed under linear progress curve conditions and fluorescence increase measured at 405 Ex/510 Em nm. Values were converted to percent inhibition of the control reaction (after subtracting 100% Inhibition value). IC50 was determined by inflection point from a four parameter logistic curve fit. Ki was calculated using the Cheng Prusoff equation, Ki=IC50/(1+([S]/Km)).

Test [2] concerns the target human factor XIa (Homo sapiens, UniProt P03951). Briefly: Factor XIa Assay. Conditions: human factor XIa 0.04 nM, 30 min pre-incubation at 25° C., substrate GPR-AFC, pH 7.4, 60 min incubation; read-out: FXIa IC50. In kind it is biochemical. The protocol:
as §1, with “Coagulation factor XIa” for “plasma kallikrein”
Compounds were pre-incubated for 30 min at 25° C. with human (0.04 nM) factor XIa in 50 mM HEPES buffer with 150 mM sodium chloride, 5 mM calcium chloride, 0.1% PEG 8000, pH 7.4. factor XIa enzymatic activity was determined by addition of the substrate glycine-proline-arginine-7-amido-4-trifluoromethylcoumarin (GPR-AFC) and measurement of the fluorescence at 400/505 nm after a 60 min incubation at 25° C. The % inhibition for each data point was calculated from the data and analyzed using the log (inhibitor) vs. response four parameters equation to determine the half-maximal inhibitory concentrations (IC50). The IC50 were converted to equilibrium inhibitory constants (Ki) using the Cheng-Prusoff equation.

Each structure is given as a SMILES string.

Chain of human factor XIa (P03951 388-625 limits assumed): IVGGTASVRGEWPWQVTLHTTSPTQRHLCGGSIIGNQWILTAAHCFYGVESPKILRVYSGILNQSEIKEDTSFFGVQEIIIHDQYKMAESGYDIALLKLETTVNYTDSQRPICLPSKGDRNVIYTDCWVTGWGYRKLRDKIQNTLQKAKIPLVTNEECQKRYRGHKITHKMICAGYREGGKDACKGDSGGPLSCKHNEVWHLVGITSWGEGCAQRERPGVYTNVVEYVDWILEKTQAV
Chain of human factor XIa (P03951 19-387 partner limits assumed): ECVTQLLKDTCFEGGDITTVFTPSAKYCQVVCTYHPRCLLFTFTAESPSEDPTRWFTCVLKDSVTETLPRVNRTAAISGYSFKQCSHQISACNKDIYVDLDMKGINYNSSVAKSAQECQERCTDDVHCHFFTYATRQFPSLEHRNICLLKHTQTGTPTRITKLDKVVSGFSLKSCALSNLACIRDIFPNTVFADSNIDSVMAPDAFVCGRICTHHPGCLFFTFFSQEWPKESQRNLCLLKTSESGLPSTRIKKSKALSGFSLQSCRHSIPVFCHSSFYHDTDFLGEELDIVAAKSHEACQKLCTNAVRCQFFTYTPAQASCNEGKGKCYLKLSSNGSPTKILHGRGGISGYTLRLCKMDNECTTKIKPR
T1 sequence (P03952 391-638 limits assumed): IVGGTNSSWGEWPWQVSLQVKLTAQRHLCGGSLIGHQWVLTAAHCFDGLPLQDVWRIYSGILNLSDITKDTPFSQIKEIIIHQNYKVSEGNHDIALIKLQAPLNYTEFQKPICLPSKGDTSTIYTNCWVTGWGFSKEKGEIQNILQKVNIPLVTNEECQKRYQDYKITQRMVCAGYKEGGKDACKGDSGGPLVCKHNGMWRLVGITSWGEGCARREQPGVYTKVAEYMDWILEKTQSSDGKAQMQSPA
T1 sequence (P03952 20-390 partner limits assumed): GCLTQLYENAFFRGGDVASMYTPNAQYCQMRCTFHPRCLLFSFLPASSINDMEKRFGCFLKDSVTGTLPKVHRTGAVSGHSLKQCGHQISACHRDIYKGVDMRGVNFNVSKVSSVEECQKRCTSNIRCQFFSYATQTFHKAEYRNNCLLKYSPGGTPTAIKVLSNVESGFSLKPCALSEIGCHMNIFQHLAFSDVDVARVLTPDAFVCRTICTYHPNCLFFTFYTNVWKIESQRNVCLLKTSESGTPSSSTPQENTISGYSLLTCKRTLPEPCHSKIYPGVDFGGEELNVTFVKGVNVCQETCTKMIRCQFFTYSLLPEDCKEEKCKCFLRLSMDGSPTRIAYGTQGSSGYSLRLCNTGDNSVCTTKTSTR

Consider `Nc1c(Cl)c(-c2ncc(F)cc2F)nn1CC(=O)N1CC[C@@]2(C1)OC(=O)Nc1ccc(Cl)c(F)c12` [Example 31, (R)-1′-(2-(5-Amino-4-chloro-3-(3,5-difluoropyridin-2-y1)-1H-pyrazol-1-yl)acetyl)-6-chloro-5-fluorospiro[benzo[d][1,3]oxazine-4,3′-pyrrolidin]-2(1H)-one], for which the IC50 in test [1] amounted to 32.1 nM; in test [2] it was 1830 nM.

For `Nc1cc(-c2ncc(F)cc2F)nn1CC(=O)N1CCC[C@@]2(C1)OC(=O)Nc1ccc(Cl)c(F)c12` [Example 32, (R)-1′-(2-(5-Amino-3-(3,5-difluoropyridin-2-y1)-1H-pyrazol-1-yl)acetyl)-6-chloro-5-fluorospiro[benzo [d][1,3]oxazine-4,3′-piperidin]-2(1H)-one], the figures for the IC50 in test [1] and in test [2] were 5.7 nM and 648 nM, respectively.

`Nc1c(Cl)c(-c2ncc(F)cc2F)nn1CC(=O)N1CCC[C@@]2(C1)OC(=O)Nc1ccc(Cl)c(F)c12` [Example 33, (R)-1′-(2-(5-Amino-4-chloro-3-(3,5-difluoropyridin-2-y1)-1H-pyrazol-1-yl)acetyl)-6-chloro-5-fluorospiro[benzo[d][1,3]oxazine-4,3′-piperidin]-2(1H)-one]: the IC50 amounted to 7.7 nM in test [1] and 187 nM in test [2].

Consider `Nc1c(Cl)c(-c2ncccc2F)nn1CC(=O)N1CCC[C@@]2(C1)OC(=O)Nc1ccc(Cl)c(F)c12` [Example 34, (R)-1′-(2-(5-Amino-4-chloro-3-(3-fluoropyridin-2-y1)-1H-pyrazol-1-yl)acetyl)-6-chloro-5-fluorospiro[benzo[d][1,3]oxazine-4,3′-piperidin]-2(1H)-one], for which the IC50 in test [1] stood at 8.9 nM; in test [2] it was 177 nM.

Regarding `Nc1c(Cl)c(-c2ncccn2)nn1CC(=O)N1CCC[C@@]2(C1)OC(=O)Nc1ccc(Cl)c(F)c12` [Example 35, (R)-1′-(2-(5-Amino-4-chloro-3-(pyrimidin-2-y1)-1H-pyrazol-1-yl)acetyl)-6-chloro-5-fluorospiro[benzo[d][1,3]oxazine-4,3′-piperidin]-2(1H)-one], the results for the IC50 in test [1] and in test [2] were 24.5 nM and 280 nM, respectively.

Consider `Nc1cc(-c2ncccc2F)nn1CC(=O)N1CCC[C@@]2(C1)OC(=O)Nc1ccc(Cl)c(F)c12` [Example 36, (R)-1′-(2-(5-Amino-3-(3-fluoropyridin-2-y1)-1H-pyrazol-1-yl)acetyl)-6-chloro-5-fluorospiro [benzo[d][1,3]oxazine-4,3′-piperidin]-2(1H)-one], for which the half-inhibitory concentration (IC50) in test [1] is 8.4 nM; in test [2] it was 826 nM.

Consider `Nc1cc(-c2c(F)cccc2F)nn1CC(=O)N1CC[C@@]2(C1)OC(=O)Nc1ccc(Cl)c(F)c12` [Example 37, (R)-1′-(2-(5-Amino-3-(2,6-difluorophenyl)-1H-pyrazol-1-yl)acetyl)-6-chloro-5-fluorospiro[benzo[d][1.3]oxazine-4,3′-pyrrolidin]-2(1H)-one], for which the IC50 was found to be 2.2 nM in test [1] and 102 nM in test [2].

Take `Nc1cc(-c2ccccn2)nn1CC(=O)N1CC[C@@]2(C1)OC(=O)Nc1ccc(Cl)c(F)c12` [Example 38, (R)-1′-(2-(5-Amino-3-(pyridin-2-y1)-1H-pyrazol-1-yl)acetyl)-6-chloro-5-fluorospiro[benzo[d][1,3]oxazine-4,3′-pyrrolidin]-2(1H)-one]: the IC50 in test [1] came to 28 nM; in test [2], 665 nM.

Turning to `Nc1cc(-c2cccs2)nn1CC(=O)N1CC[C@@]2(C1)OC(=O)Nc1ccc(Cl)c(F)c12` [Example 39, (R)-1′-(2-(5-Amino-3-(thiophen-2-y1)-1H-pyrazol-1-yl)acetyl)-6-chloro-5-fluorospiro[benzo[d] [1,3]oxazine-4,3′-pyrrolidin]-2(1H)-one], the half-maximal inhibitory concentration (IC50) was found to be 13 nM in test [1] and 254 nM in test [2].

As to `Nc1cc(-c2ccco2)nn1CC(=O)N1CC[C@@]2(C1)OC(=O)Nc1ccc(Cl)c(F)c12` [Example 40, (R)-1′-(2-(5-Amino-3-(furan-2-y1)-1H-pyrazol-1-yl)acetyl)-6-chloro-5-fluorospiro[benzo[d] [1,3]oxazine-4,3′-pyrrolidin]-2(1H)-one], the figures for the IC50 in test [1] and in test [2] were 16.2 nM and 225 nM, respectively.

On to `Nc1cc(-c2nccs2)nn1CC(=O)N1CC[C@@]2(C1)OC(=O)Nc1ccc(Cl)c(F)c12` [Example 41, (R)-1′-(2-(5-Amino-3-(thiazol-2-y1)-1H-pyrazol-1-yl)acetyl)-6-chloro-5-fluorospiro[benzo[d] [1,3]oxazine-4,3′-pyrrolidin]-2(1H)-one], for which the IC50 was 18.1 nM in test [1] and 286 nM in test [2].

As to `Cc1cccc(-c2cc(N)n(CC(=O)N3CC[C@@]4(C3)OC(=O)Nc3ccc(Cl)c(F)c34)n2)c1` [Example 42, (R)-1′-(2-(5-Amino-3-(m-toly1)-1H-pyrazol-1-yl)acetyl)-6-chloro-5-fluorospiro[benzo[d][1,3]oxazine-4,3′-pyrrolidin]-2(1H)-one], the IC50 amounted to 15.1 nM in test [1] and 611 nM in test [2].

With `Nc1cc(-c2ccccc2Cl)nn1CC(=O)N1CC[C@@]2(C1)OC(=O)Nc1ccc(Cl)c(F)c12` [Example 43, (R)-1′-(2-(5-Amino-3-(2-chlorophenyl)-1H-pyrazol-1-yl)acetyl)-6-chloro-5-fluorospiro[benzo[d][1,3]oxazine-4,3′-pyrrolidin]-2(1H)-one], the IC50 in test [1] stood at 3.2 nM; in test [2] it was 187 nM.

Take `Nc1cc(-c2cncc(Br)c2)nn1CC(=O)N1CC[C@@]2(C1)OC(=O)Nc1ccc(Cl)c(F)c12` [Example 44, (R)-1′-(2-(5-Amino-3-(5-bromopyridin-3-y1)-1H-pyrazol-1-yl)acetyl)-6-chloro-5-fluorospiro[benzo[d][1,3]oxazine-4,3'-pyrrolidin]-2(1H)-one]: the IC50 in test [1] is 11.2 nM; in test [2], 389 nM.

As to `Cc1ccc(-c2cc(N)n(CC(=O)N3CC[C@@]4(C3)OC(=O)Nc3ccc(Cl)c(F)c34)n2)n1C` [Example 45, (R)-1′-(2-(5-Amino-3-(1,5-dimethyl-1H-pyrrol-2-y1)-1H-pyrazol-1-yl)acetyl)-6-chloro-5-fluorospiro[benzo[d][1,3]oxazine-4,3′-pyrrolidin]-2(1H)-one], the IC50 in test [1] was found to be 40.3 nM; in test [2], 2760 nM.

For the compound `Nc1cc(-c2ccc(F)cc2F)nn1CC(=O)N1CC[C@@]2(C1)OC(=O)Nc1ccc(Cl)c(F)c12` [Example 46, (R)-1′-(2-(5-Amino-3-(2,4-difluorophenyl)-1H-pyrazol-1-yl)acetyl)-6-chloro-5-fluorospiro[benzo[d][1,3]oxazine-4,3′-pyrrolidin]-2(1H)-one], the IC50 worked out at 5 nM in test [1] and 263 nM in test [2].

In the case of `Nc1cc(-c2ccc(F)c(F)c2)nn1CC(=O)N1CC[C@@]2(C1)OC(=O)Nc1ccc(Cl)c(F)c12` [Example 47, (R)-1′-(2-(5-Amino-3-(3,4-difluorophenyl)-1H-pyrazol-1-yl)acetyl)-6-chloro-5-fluorospiro[benzo[d][1,3]oxazine-4,3′-pyrrolidin]-2(1H)-one], the IC50 came to 14.3 nM in test [1] and 739 nM in test [2].

As for `Nc1cc(-c2cc3ccccc3o2)nn1CC(=O)N1CC[C@@]2(C1)OC(=O)Nc1ccc(Cl)c(F)c12` [Example 48, (R)-1′-(2-(5-Amino-3-(benzofuran-2-y1)-1H-pyrazol-1-yl)acetyl)-6-chloro-5-fluorospiro[benzo[d][1,3]oxazine-4,3′-pyrrolidin]-2(1H)-one], the IC50 amounted to 7.8 nM in test [1] and 1400 nM in test [2].

The record behind these values is patent US20240208994A1, “PLASMA KALLIKREIN INHIBITORS” (Merck Sharp & Dohme LLC, priority 2021, published 2024).
